{"source": "patent US7199129B2", "about": "“Derivatives of morphine-like opioid compounds” (Monash University, priority 2001, dated 2007)", "key": {"[1]": {"target": "T1, human μ-opiate receptor (Homo sapiens, UniProt P35372)", "T1 construct": "purchased MDS Pharma Services 260410", "T1 sequence (P35372 whole entry)": "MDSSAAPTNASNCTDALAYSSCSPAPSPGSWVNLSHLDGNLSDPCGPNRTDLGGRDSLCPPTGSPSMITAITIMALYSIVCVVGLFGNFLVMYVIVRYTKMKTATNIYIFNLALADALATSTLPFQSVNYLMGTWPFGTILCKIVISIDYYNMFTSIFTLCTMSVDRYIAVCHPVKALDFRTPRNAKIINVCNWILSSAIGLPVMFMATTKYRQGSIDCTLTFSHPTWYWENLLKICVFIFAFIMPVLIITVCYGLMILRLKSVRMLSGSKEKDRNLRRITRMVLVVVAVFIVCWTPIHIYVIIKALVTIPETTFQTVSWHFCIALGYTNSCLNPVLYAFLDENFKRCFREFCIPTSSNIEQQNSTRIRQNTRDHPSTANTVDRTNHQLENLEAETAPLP", "assay": "In vitro opiate receptor radioligand binding assay, μ", "settings": "test compound 10 μM", "description": "(§1) To characterise the target specificity of the compounds, KRS-5-150 and KRS-6-26 were tested at a concentration of 10 μM for their ability to inhibit the binding of a radioligand to human δ-, κ-, or μ-opiate receptors in vitro using commercially available assays (MDS Pharma Services; assay catalogue numbers 260110, 260210 and 260410 respectively).\n(§2) Percentage inhibition of radioligand binding to human opioid receptors in vitro by test compounds (10 μM)"}, "[2]": {"system": "ICR-derived mice", "assay": "Phenylquinone-induced writhing assay in mice, IP and oral (Example 17)", "format": "in vivo", "settings": "for % Inhibition / Number of Writhings Average / Number of Writhings Individual: Table 2; for Number of Writhings Individual: individual mice; for Died (mortality, animals of group of 3): within 30 minutes after administration", "description": "Further testing on compound KRS-5–150 was carried out under contract by MDS Pharma Services—Taiwan Ltd. The study was designed to evaluate the effects of the compound as an analgesic in the phenylquinone-induced writhing assay, which was described in the previous example, and in the radiant heat-induced tail-flick response assay in mice (D'Amour et al., 1941).\nFor the phenylquinone writhing test, groups of three male or female ICR-derived mice weighing 22±2 g were used. For the phenylquinone writhing test, KRS-5-150 at doses of 1, 2, 4, 8, 16, 32, 64 and 128 mg/kg in either 2% Tween 80/0.9% NaCl or in 2% Tween 80 was used for intraperitoneal administration, or at doses of 1, 2, 4, 8, 16, 32 or 64 mg/kg in the same vehicles for oral administration. Control animals received vehicle alone. […] A reduction in the number of writhes by 50% or more (≧50%) relative to the vehicle-treated group indicated possible analgesic activity."}, "[3]": {"system": "ICR mice", "assay": "Straub tail behaviour (indicator of CNS activity) and observed signs in test animals", "excerpt": "The Straub test is an indicator of CNS activity.\nThe tail-flick test is thought to involve central nervous system activity, and therefore provides further confirmation of the Straub tail test."}, "[4]": {"system": "ICR mice", "assay": "Radiant heat-induced tail-flick response assay in mice", "format": "in vivo", "settings": "IP; for % Inhibition (prolongation of tail-flick response time): 30 minutes; for Response Time (Seconds) 30 Mins., Average / Response Time (Seconds) 30 Mins.: 30 minutes after administration; for Response Time (Seconds) 30 Mins. / Response Time (Seconds) 0 Time: individual mice; for Response Time (Seconds) 30 Mins.: cut-off 15 seconds; for Response Time (Seconds) 0 Time / Response Time (Seconds) 0 Time, Average: pre-treatment (0 minutes)", "description": "For the tail-flick assay, groups of four male or female ICR mice weighing 22±2 g were used, and the test compound dissolved in 2% Tween 80/0.9% NaCl was administered intraperitoneally. The compound was administered intraperitoneally at 4, 8, 16 or 32 mg/kg, using 2% Tween 80—0.9% NaCl as the vehicle. Controls received vehicle alone. Morphine-HCl at a dose of 10 mg/kg was used as a positive control. At the pre-treatment point (0 minutes) a focused beam of radiant heat was applied to the middle dorsal surface of the tail to elicit a tail-flick response. […] The time required to elicit a pain response was recorded for each animal at 30 minutes following administration of the test compound. A prolongation of 50% or more ≧50% of the time required to elicit tail-flick response indicated possible analgesic activity."}, "[5]": {"target": "T2, human δ-opiate receptor (Homo sapiens, UniProt P41143)", "T2 construct": "purchased MDS Pharma Services 260110", "T2 sequence (P41143 whole entry)": "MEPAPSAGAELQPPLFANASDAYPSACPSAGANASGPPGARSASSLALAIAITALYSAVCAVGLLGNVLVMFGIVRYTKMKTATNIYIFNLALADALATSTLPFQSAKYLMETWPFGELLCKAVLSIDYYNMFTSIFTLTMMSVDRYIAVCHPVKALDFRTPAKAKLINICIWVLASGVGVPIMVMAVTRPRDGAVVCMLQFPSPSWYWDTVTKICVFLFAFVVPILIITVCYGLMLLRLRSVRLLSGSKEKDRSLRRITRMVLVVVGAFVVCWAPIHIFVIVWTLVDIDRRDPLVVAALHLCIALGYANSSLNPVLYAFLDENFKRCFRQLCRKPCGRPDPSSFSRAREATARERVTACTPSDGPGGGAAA", "assay": "In vitro opiate receptor radioligand binding assay, δ", "settings": "test compound 10 μM", "description": "as §1, §2"}}, "note": "“And” between values parts separate entries of the source, which are not always exact repeats. Equal values may be shown once. “Also recorded” adds a separate entry of the source."}
{"smiles": "Oc1ccc2c3c1O[C@H]1[C@@H](O)C=C[C@H]4[C@@H](C2)N(CCCNC(=Nc2ccccc2)Nc2ccccc2)CC[C@@]341", "note": "[KRS-5-150, (5α,6α)-7,8 didehydro-4,5-epoxy-17-(N,N′-bisphenylcarboxamidino-3-aminopropyl)morphinan,3,6-diol]", "values": [{"measurement": "Percentage inhibition of radioligand binding, μ-opiate receptor", "setting": "[1]", "value": 98, "unit": "%"}, {"measurement": "% Inhibition", "setting": "[2]; IP, 1 mg/kg", "value": 13, "unit": "%"}, {"measurement": "Number of Writhings Average", "setting": "[2]; IP, 1 mg/kg", "value": 14}, {"measurement": "Number of Writhings Individual", "setting": "[2]; IP, 1 mg/kg", "value": "16 and 13 and 14"}, {"measurement": "% Inhibition", "setting": "[2]; IP, 2 mg/kg", "value": 31, "unit": "%"}, {"measurement": "Number of Writhings Average", "setting": "[2]; IP, 2 mg/kg", "value": 11}, {"measurement": "Number of Writhings Individual", "setting": "[2]; IP, 2 mg/kg", "value": "13 and 11 and 8"}, {"measurement": "% Inhibition", "setting": "[2]; IP, 4 mg/kg", "value": "(56) %"}, {"measurement": "Number of Writhings Average", "setting": "[2]; IP, 4 mg/kg", "value": 7}, {"measurement": "Number of Writhings Individual", "setting": "[2]; IP, 4 mg/kg", "value": "2 and 11 and 8"}, {"measurement": "% Inhibition", "setting": "[2]; IP, 8 mg/kg", "value": "(88) %"}, {"measurement": "Number of Writhings Average", "setting": "[2]; IP, 8 mg/kg", "value": 2}, {"measurement": "Number of Writhings Individual", "setting": "[2]; IP, 8 mg/kg", "value": "0 and 4 and 2"}, {"measurement": "% Inhibition", "setting": "[2]; IP, 16 mg/kg", "value": "(69) %"}, {"measurement": "Number of Writhings Average", "setting": "[2]; IP, 16 mg/kg", "value": 5}, {"measurement": "Number of Writhings Individual", "setting": "[2]; IP, 16 mg/kg", "value": "4 and 2 and 9"}, {"measurement": "% Inhibition", "setting": "[2]; IP, 32 mg/kg", "value": "(100) %"}, {"measurement": "Number of Writhings Average", "setting": "[2]; IP, 32 mg/kg", "value": 0}, {"measurement": "Number of Writhings Individual", "setting": "[2]; IP, 32 mg/kg", "value": 0}, {"measurement": "Number of Writhings Individual", "setting": "[2]; IP, 64 mg/kg", "value": "Died and 0 (2×)"}, {"measurement": "Died (mortality, animals of group of 3)", "setting": "[2]; IP, 64 mg/kg, 64 mg/kg", "value": "1 of 3 and ⅓ and 1/3 Died"}, {"measurement": "Number of Writhings Individual", "setting": "[2]; IP, 128 mg/kg", "value": "0 and Died (2×)"}, {"measurement": "Died (mortality, animals of group of 3)", "setting": "[2]; IP, 128 mg/kg, 128 mg/kg", "value": "2 of 3 and ⅔ and 2/3 Died"}, {"measurement": "analgesic activity in writhing test", "setting": "[2]; given IP", "value": "active"}, {"measurement": "analgesic activity (≧50% reduction in writhes)", "setting": "[2]; intraperitoneal, doses of 4, 8, 16 and 32 mg/kg", "value": "Significant activity"}, {"measurement": "analgesic activity (≧50% reduction in writhes)", "setting": "[2]; oral administration, 1 to 64 mg/kg", "value": "not when given orally; also recorded: not after oral administration"}, {"measurement": "% Inhibition", "setting": "[2]; oral, 1 mg/kg", "value": 0, "unit": "%"}, {"measurement": "Number of Writhings Average", "setting": "[2]; oral, 1 mg/kg", "value": 16}, {"measurement": "Number of Writhings Individual", "setting": "[2]; oral, 1 mg/kg", "value": "25 and 8 and 14"}, {"measurement": "% Inhibition", "setting": "[2]; oral, 2 mg/kg", "value": 0, "unit": "%"}, {"measurement": "Number of Writhings Average", "setting": "[2]; oral, 2 mg/kg", "value": 14}, {"measurement": "Number of Writhings Individual", "setting": "[2]; oral, 2 mg/kg", "value": "9 and 21 and 11"}, {"measurement": "% Inhibition", "setting": "[2]; oral, 4 mg/kg", "value": 0, "unit": "%"}, {"measurement": "Number of Writhings Average", "setting": "[2]; oral, 4 mg/kg", "value": 14}, {"measurement": "Number of Writhings Individual", "setting": "[2]; oral, 4 mg/kg", "value": "9 and 15 and 17"}, {"measurement": "% Inhibition", "setting": "[2]; oral, 8 mg/kg", "value": 0, "unit": "%"}, {"measurement": "Number of Writhings Average", "setting": "[2]; oral, 8 mg/kg", "value": 15}, {"measurement": "Number of Writhings Individual", "setting": "[2]; oral, 8 mg/kg", "value": "17 and 21 and 6"}, {"measurement": "% Inhibition", "setting": "[2]; oral, 16 mg/kg", "value": 0, "unit": "%"}, {"measurement": "Number of Writhings Average", "setting": "[2]; oral, 16 mg/kg", "value": 14}, {"measurement": "Number of Writhings Individual", "setting": "[2]; oral, 16 mg/kg", "value": "6 and 17 and 18"}, {"measurement": "% Inhibition", "setting": "[2]; oral, 32 mg/kg", "value": 0, "unit": "%"}, {"measurement": "Number of Writhings Average", "setting": "[2]; oral, 32 mg/kg", "value": 15}, {"measurement": "Number of Writhings Individual", "setting": "[2]; oral, 32 mg/kg", "value": "12 and 14 and 18"}, {"measurement": "% Inhibition", "setting": "[2]; oral, 64 mg/kg", "value": 14, "unit": "%"}, {"measurement": "Number of Writhings Average", "setting": "[2]; oral, 64 mg/kg", "value": 12}, {"measurement": "Number of Writhings Individual", "setting": "[2]; oral, 64 mg/kg", "value": "12 and 5 and 18"}, {"measurement": "test animals exhibiting an increase in respiratory depth", "setting": "[3]; 128 mg/kg IP, Example 17", "value": "3 of 3"}, {"measurement": "test animals exhibiting slight anoxia", "setting": "[3]; 128 mg/kg IP, Example 17", "value": "3 of 3"}, {"measurement": "test animals exhibiting slight tremors", "setting": "[3]; 128 mg/kg IP, Example 17", "value": "3 of 3"}, {"measurement": "Straub tail behaviour", "setting": "[3]; Example 17 (writhing and tail-flick studies)", "value": "None of the mice given KRS-5-150 exhibited Straub tail behaviour"}, {"measurement": "Straub tail behaviour", "setting": "[3]; IP, 2 to 64 mg/kg, Example 16", "value": "did not exhibit Straub tail behaviour"}, {"measurement": "% Inhibition (prolongation of tail-flick response time)", "setting": "[4]; 4 mg/kg", "value": 5, "unit": "%"}, {"measurement": "Response Time (Seconds) 30 Mins., Average", "setting": "[4]; 4 mg/kg", "value": 6.6, "unit": "s"}, {"measurement": "Response Time (Seconds) 30 Mins.", "setting": "[4]; 4 mg/kg, 4 mg/kg", "value": "6.2 Seconds (2×) and 6.4 Seconds and 7.4 Seconds"}, {"measurement": "Response Time (Seconds) 0 Time", "setting": "[4]; 4 mg/kg", "value": "6.3 Seconds (2×) and 6.4 Seconds and 6.2 Seconds"}, {"measurement": "Response Time (Seconds) 0 Time, Average", "setting": "[4]; 4 mg/kg", "value": 6.3, "unit": "s"}, {"measurement": "% Inhibition (prolongation of tail-flick response time)", "setting": "[4]; 8 mg/kg", "value": 3, "unit": "%"}, {"measurement": "Response Time (Seconds) 30 Mins., Average", "setting": "[4]; 8 mg/kg", "value": 6.6, "unit": "s"}, {"measurement": "Response Time (Seconds) 30 Mins.", "setting": "[4]; 8 mg/kg, 8 mg/kg", "value": "6.4 s and 6.8 s and 6.5 s and 6.7 s"}, {"measurement": "Response Time (Seconds) 0 Time", "setting": "[4]; 8 mg/kg", "value": "6.3 Seconds (2×) and 6.5 Seconds and 6.4 Seconds"}, {"measurement": "Response Time (Seconds) 0 Time, Average", "setting": "[4]; 8 mg/kg", "value": 6.4, "unit": "s"}, {"measurement": "% Inhibition (prolongation of tail-flick response time)", "setting": "[4]; 16 mg/kg", "value": 2, "unit": "%"}, {"measurement": "Response Time (Seconds) 30 Mins., Average", "setting": "[4]; 16 mg/kg", "value": 6.4, "unit": "s"}, {"measurement": "Response Time (Seconds) 30 Mins.", "setting": "[4]; 16 mg/kg, 16 mg/kg", "value": "6.3 s and 6.5 s and 6.2 s and 6.4 s"}, {"measurement": "Response Time (Seconds) 0 Time", "setting": "[4]; 16 mg/kg", "value": "6.2 Seconds (2×) and 6.3 Seconds and 6.4 Seconds"}, {"measurement": "Response Time (Seconds) 0 Time, Average", "setting": "[4]; 16 mg/kg", "value": 6.3, "unit": "s"}, {"measurement": "% Inhibition (prolongation of tail-flick response time)", "setting": "[4]; 32 mg/kg", "value": 19, "unit": "%"}, {"measurement": "Response Time (Seconds) 30 Mins., Average", "setting": "[4]; 32 mg/kg", "value": 7.6, "unit": "s"}, {"measurement": "Response Time (Seconds) 30 Mins.", "setting": "[4]; 32 mg/kg, 32 mg/kg", "value": "6.7 s and 8.7 s and 6.5 s and 8.4 s"}, {"measurement": "Response Time (Seconds) 0 Time", "setting": "[4]; 32 mg/kg", "value": "6.5 Seconds and 6.3 Seconds (2×) and 6.4 Seconds"}, {"measurement": "Response Time (Seconds) 0 Time, Average", "setting": "[4]; 32 mg/kg", "value": 6.4, "unit": "s"}, {"measurement": "analgesic activity in tail-flick assay (≧50% prolongation)", "setting": "[4]; 4, 8, 16 and 32 mg/kg", "value": "none of the four doses used showed significant activity"}, {"measurement": "Percentage inhibition of radioligand binding, δ-opiate receptor", "setting": "[5]", "value": 79, "unit": "%"}]}
